Source: publication PMC8300687, “A Fine-Tuned Lipophilicity/Hydrophilicity Ratio Governs Antibacterial Potency and Selectivity of Bifurcated Halogen Bond-Forming NBTIs” (Antibiotics, 2021)
Values after ≈ are worked out from the molar mass of the structure shown. Read-outs that look alike come from different tables or passages of the source.

Columns and labels:
MRSA (QA-11.7) = assay: MIC broth microdilution, MRSA QA-11.7; type: cell-based, methicillin-resistant S. aureus; details: Staphylococcus aureus, 20 h, read-out: MIC MRSA (QA-11.7)
Protocol: (§1) Antimicrobial testing was carried out by the broth microdilution method in 96-well plate format following the Clinical and Laboratory Standards Institute (CLSI) guidelines and European Committee on Antimicrobial Susceptibility Testing (EUCAST) recommendations. Bacterial suspension of specific bacterial strain equivalent to 0.5 McFarland turbidity standard was diluted with cation-adjusted Mueller Hinton broth with TES (Thermo Fisher Diagnostic, Landsmeer, The Netherlands), to obtain a final inoculum of 10^5 CFU/mL. Compounds dissolved in DMSO and inoculum were mixed together and incubated for 18–20 h at 35 °C. Suspensions of Mycobacterium sp. were prepared into a tube of Middelbrook 7H9 broth supplemented with 5% OADC (Thermo Scientific, Trek Diagnostic Systems, West Sussex, UK) and incubated for at least 10 days. After incubation the minimal inhibitory concentration (MIC) values were determined by visual inspection as the lowest dilution of compounds showing no turbidity. Tetracycline was used as a positive control on every assay plate.

MRSA = assay: MIC broth microdilution, MRSA; type: cell-based, methicillin-resistant S. aureus; details: Staphylococcus aureus, read-out: MIC MRSA
Protocol: as §1

M. smegmatis = assay: MIC, M. smegmatis; type: cell-based, Mycobacterium smegmatis
Protocol: as §1

S. aureus Topo IV = target: T1, S. aureus Topo IV (Staphylococcus aureus, UniProt Q2FYS4); assay: biochemical; details: mean of two to four measurements; read-out: Topoisomerase IV IC50 S. aureus
T1 construct: purchased Inspiralis (Norwich, UK)
Protocol: A Topo IV Relaxation High Throughput Plate assay kit, purchased from Inspiralis (Norwich. UK) was used to determine IC50 values of compounds on S. aureus and E. coli. […] Biotinylated oligonucleotide in wash buffer was immobilized onto the wells, and the excess oligonucleotide was washed off with wash buffer and ultrapure water. 1.5 U of S. aureus or E. coli […] enzyme was incubated together with 0.75 μg of supercoiled pNO1 plasmid as a substrate in the presence of 3 μL inhibitor solution in 10% DMSO and 0.008% Tween 20 at 37 °C for 30 min in a final reaction volume of 30 μL in dilution buffer (50 mM Tris-HCl (pH 7.5), 1 mM DTT, 1 mM EDTA, 40% (w/v) glycerol for S. aureus and 40 mM HEPES, KOH (pH 7.6), 100 mM potassium glutamate, 1 mM DTT, 1 mM EDTA, and 40% (v/v) glycerol for E. coli). The reactions were stopped by adding the TF buffer (50 mM NaOAc (pH 4.7), 50 mM NaCl, and 50 mM MgCl2) to allow the triplex formation (biotin-oligonucleotide-plasmid) for additional 30 min. Afterward, the unbound plasmid was washed off using TF buffer, and the solution of Promega Diamond dye in T10 buffer (10 mM Tris-HCl (pH 8.0), 1 mM EDTA) was added. […] IC50 value represents the mean of two to four independent measurements.

E. coli (QA-11.3) = assay: MIC broth microdilution, E. coli QA-11.3; type: cell-based
Protocol: as §1

[1] = test system: S. agalactiae RDK 047 (QA-990/02); assay: MIC broth microdilution, S. agalactiae; type: cell-based
Protocol: as §1

MRSA (QA-11.6) = assay: MIC broth microdilution, MRSA QA-11.6; type: cell-based, methicillin-resistant S. aureus; details: Staphylococcus aureus, read-out: MIC MRSA (QA-11.6)
Protocol: as §1

[2] = test system: A. baumannii 8C6 (GES-14); assay: MIC broth microdilution, A. baumannii; type: cell-based
Protocol: as §1

[3] = test system: S. alachua RDK 030c (QA-1482/04); assay: MIC broth microdilution, S. alachua; type: cell-based
Protocol: as §1

HUVEC = assay: Metabolic activity assessment (cytotoxicity), HUVEC; type: cell-based; details: Homo sapiens, metabolic activity after 72 h treatment
Protocol: Cells of the HepG2 line (ATCC® HB-8065™) and HUVEC (ATCC® CRL-1730™) were cultured in Dulbecco’s Modified Eagle Medium (DMEM; Sigma-Aldrich, St. Louis, MO, USA) supplemented with 10% heat-deactivated FBS (Gibco, Grand Island, NE, USA), 2 mM L-glutamine, 100 U/mL penicillin, 100 μg/mL streptomycin (all from Sigma-Aldrich, St. Louis, MO, USA) in a humidified chamber at 37 °C and 5% CO2. The experiments were carried out on passages 7–9 for both cell lines. The tested compounds were dissolved in DMSO and further diluted in culture medium to a desired final concentration. Cells were seeded into 96-well plates at 8 × 10^4 cells/mL (100 μL/well) and incubated for 24 h to attach onto the wells. Cells were treated with 1 μM and 50 μM of each compound of interest or corresponding vehicle as control. […] The metabolic activity was assessed after 72 h treatment using the CellTiter 96 Aqueous One Solution Cell Proliferation Assay (Promega, Madison, WI, USA), in accordance with the manufacturer’s instructions. The absorbance was measured at 492 nm on an automated microplate reader BioTek Synergy HT (BioTek Instruments, Inc., Winooski, VT, USA). Data are presented as the percentage of metabolic activity of control cells stimulated with vehicle or as IC50 value (mean ± SD) from two independent experiments, each conducted in duplicate or triplicate. IC50 values were calculated by a non-linear regression model using Graph Pad Prism 7 software.

M. avium = assay: MIC, M. avium; type: cell-based
Protocol: as §1

[4] = test system: C. jejuni RDK 135 (ATCC 33560); assay: MIC broth microdilution, C. jejuni; type: cell-based
Protocol: as §1

[5] = test system: E. faecalis DRK 057 (ATCC 29212); assay: MIC broth microdilution, E. faecalis; type: cell-based
Protocol: as §1

[6] = test system: P. aeruginosa RDK 184 (DSM 939); assay: MIC broth microdilution, P. aeruginosa; type: cell-based
Protocol: as §1

E. coli (ATCC 25922) = assay: MIC broth microdilution, E. coli ATCC 25922; type: cell-based
Protocol: as §1

[7] = Mycolicibacterium smegmatis; read-out: MIC M. smegmatis
[8] = Escherichia coli, 20 h; read-out: MIC E. coli (QA-11.3)
[9] = Streptococcus agalactiae; read-out: MIC S. agalactiae RDK 047 (QA-990/02)
[10] = resistant to cefoxitin, gentamicin, sulfamethoxazole, tetracycline
[11] = Acinetobacter baumannii; read-out: MIC A. baumannii 8C6 (GES-14)
[12] = Salmonella; read-out: MIC S. alachua RDK 030c (QA-1482/04)
[13] = Mycobacterium avium; read-out: MIC M. avium
[14] = Campylobacter jejuni, ATCC33560; read-out: MIC C. jejuni RDK 135 (ATCC 33560)
[15] = Enterococcus faecalis, ATCC29212; read-out: MIC E. faecalis DRK 057 (ATCC 29212)
[16] = Pseudomonas aeruginosa, DSM939; read-out: MIC P. aeruginosa RDK 184 (DSM 939)
[17] = Escherichia coli, ATCC25922, 20 h; E. coli ATCC 25922; read-out: E. coli MIC (converted)
[18] = Escherichia coli, ATCC25922; read-out: MIC E. coli (ATCC 25922)
[19] = Escherichia coli, ATCC25922; E. coli ATCC 25922; read-out: E. coli MIC (converted)

T1 sequence (Q2FYS5 whole entry): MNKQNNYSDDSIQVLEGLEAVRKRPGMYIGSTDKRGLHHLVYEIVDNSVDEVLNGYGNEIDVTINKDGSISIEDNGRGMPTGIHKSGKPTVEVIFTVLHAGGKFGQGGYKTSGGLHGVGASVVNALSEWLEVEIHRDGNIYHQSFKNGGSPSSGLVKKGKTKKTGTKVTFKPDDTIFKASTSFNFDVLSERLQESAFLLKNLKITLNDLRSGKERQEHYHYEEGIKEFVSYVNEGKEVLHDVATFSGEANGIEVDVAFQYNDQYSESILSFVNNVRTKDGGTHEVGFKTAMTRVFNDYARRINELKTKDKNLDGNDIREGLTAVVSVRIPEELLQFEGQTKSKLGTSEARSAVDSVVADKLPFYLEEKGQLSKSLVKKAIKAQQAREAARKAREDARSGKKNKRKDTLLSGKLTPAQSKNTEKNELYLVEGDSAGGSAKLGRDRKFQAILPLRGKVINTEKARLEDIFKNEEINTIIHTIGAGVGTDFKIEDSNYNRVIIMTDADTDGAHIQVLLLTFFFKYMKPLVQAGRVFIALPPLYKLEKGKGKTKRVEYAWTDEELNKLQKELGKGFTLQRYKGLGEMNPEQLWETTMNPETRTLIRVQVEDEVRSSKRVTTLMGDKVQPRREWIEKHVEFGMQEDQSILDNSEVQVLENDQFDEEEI
T1 sequence (Q2FYS4 whole entry): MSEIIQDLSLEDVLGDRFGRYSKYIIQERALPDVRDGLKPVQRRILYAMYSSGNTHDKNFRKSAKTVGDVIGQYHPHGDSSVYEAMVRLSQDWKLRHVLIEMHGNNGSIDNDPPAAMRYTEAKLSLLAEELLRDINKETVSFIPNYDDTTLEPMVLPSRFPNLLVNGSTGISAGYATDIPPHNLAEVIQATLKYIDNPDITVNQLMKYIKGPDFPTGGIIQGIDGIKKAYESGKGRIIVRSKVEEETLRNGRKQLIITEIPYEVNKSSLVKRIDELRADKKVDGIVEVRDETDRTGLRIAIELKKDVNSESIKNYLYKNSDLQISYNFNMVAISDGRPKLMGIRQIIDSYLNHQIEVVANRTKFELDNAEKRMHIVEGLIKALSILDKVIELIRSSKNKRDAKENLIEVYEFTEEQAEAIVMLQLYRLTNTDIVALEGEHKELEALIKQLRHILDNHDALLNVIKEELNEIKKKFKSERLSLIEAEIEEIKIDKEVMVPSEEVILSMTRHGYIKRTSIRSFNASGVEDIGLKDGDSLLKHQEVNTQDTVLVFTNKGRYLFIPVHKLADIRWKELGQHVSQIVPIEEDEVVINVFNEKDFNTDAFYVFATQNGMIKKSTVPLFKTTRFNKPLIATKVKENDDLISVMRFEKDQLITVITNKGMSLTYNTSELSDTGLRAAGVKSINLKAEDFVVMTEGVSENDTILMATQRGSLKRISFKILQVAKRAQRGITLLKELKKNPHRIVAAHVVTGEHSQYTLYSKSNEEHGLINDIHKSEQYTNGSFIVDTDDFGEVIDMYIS

Row | Compound | MIC (MRSA (QA-11.7)) [µg/mL] | MIC (MRSA) [µg/mL] | MIC (M. smegmatis; [7]) [µg/mL] | IC50 (S. aureus Topo IV) [µM] | MIC (E. coli (QA-11.3); [8]) [µg/mL] | MIC [1, 9] [µg/mL] | MIC (MRSA (QA-11.6); [10]) [µg/mL] | MIC [2, 11] [µg/mL] | MIC [3, 12] [µg/mL] | MIC (M. avium; [13]) [µg/mL] | MIC [4, 14] [µg/mL] | MIC [5, 15] [µg/mL] | MIC [6, 16] [µg/mL] | MIC (E. coli (ATCC 25922); [17]) [µM] | MIC (E. coli (ATCC 25922); [18]) [µg/mL] | MIC (E. coli (ATCC 25922); [19]) [µM] | other results
1 | COc1ccc2nccc(CCN3CCC(NCc4nc5ccccc5n4C)CC3)c2n1 [Compound 3, 1-(2-(6-Methoxy-1,5-naphthyridin-4-yl)ethyl)-N-((1-methyl-1H-benzo[d]imidazol-2-yl)methyl)piperidin-4-amine] | 8 (≈ 18.6 µM) | 2 (≈ 4.65 µM) | 4 (≈ 9.29 µM) | > 100 | 128 (≈ 297 µM) | < 1 | 2 (≈ 4.65 µM) | > 128 | > 128 | > 128 | 1 (≈ 2.32 µM) | 4 (≈ 9.29 µM) | > 128 | 297 | > 128 | – | IC50 (HUVEC): > 50 µM
2 | COc1ccc2nccc(CCN3CCC(NC(=O)c4cn5cccc(C#N)c5n4)CC3)c2n1 [Compound 7, 8-Cyano-N-(1-(2-(6-methoxy-1,5-naphthyridin-4-yl)ethyl)piperidin-4-yl)imidazo[1,2-a]pyridine-2-carboxamide] | > 128 | > 128 | 16 (≈ 35.1 µM) | > 100 | – | – | – | – | – | – | – | – | – | 281 | – | – | MIC (E. coli (QA-11.3); Escherichia coli, 20 h, read-out: MIC E. coli (QA-11.3)): > 128 µg/mL; MIC ([1]; Streptococcus agalactiae, read-out: MIC S. agalactiae RDK 047 (QA-990/02)): > 128 µg/mL; MIC (MRSA (QA-11.6)): > 128 µg/mL; MIC ([2]; Acinetobacter baumannii, read-out: MIC A. baumannii 8C6 (GES-14)): > 128 µg/mL; MIC ([3]; Salmonella, read-out: MIC S. alachua RDK 030c (QA-1482/04)): > 128 µg/mL; MIC (M. avium; Mycobacterium avium, read-out: MIC M. avium): > 128 µg/mL; MIC ([4]; Campylobacter jejuni, ATCC33560, read-out: MIC C. jejuni RDK 135 (ATCC 33560)): > 128 µg/mL; MIC ([5]; Enterococcus faecalis, ATCC29212, read-out: MIC E. faecalis DRK 057 (ATCC 29212)): > 128 µg/mL; MIC ([6]; Pseudomonas aeruginosa, DSM939, read-out: MIC P. aeruginosa RDK 184 (DSM 939)): > 128 µg/mL; MIC (E. coli (ATCC 25922); Escherichia coli, ATCC25922, read-out: MIC E. coli (ATCC 25922)): > 128 µg/mL
3 | COc1ccc2nccc(CCN3CCC(NCc4ccccc4)CC3)c2n1 [Compound 11] | 8 (≈ 21.2 µM) | 8 (≈ 21.2 µM) | 8 (≈ 21.2 µM) | > 100 | 32 (≈ 85 µM) | 16 (≈ 42.5 µM) | 8 (≈ 21.2 µM) | 64 (≈ 170 µM) | > 128 | > 128 | 32 (≈ 85 µM) | 16 (≈ 42.5 µM) | > 128 | – | 64 | 170 | –
4 | COc1ccc2nccc(CCN3CCC(NCc4ccc(F)cc4)CC3)c2n1 [Compound 12] | 4 (≈ 10.1 µM) | 2 (≈ 5.07 µM) | 2 (≈ 5.07 µM) | > 100 | 8 (≈ 20.3 µM) | 8 (≈ 20.3 µM) | 4 (≈ 10.1 µM) | 32 (≈ 81.1 µM) | 128 (≈ 324 µM) | 32 (≈ 81.1 µM) | 1 (≈ 2.53 µM) | 8 (≈ 20.3 µM) | > 128 | – | 32 | 81.1 | –
5 | COc1ccc2nccc(CCN3CCC(NCc4ccc(Cl)cc4)CC3)c2n1 [Compound 13] | 0.5 (≈ 1.22 µM) | 0.25 (≈ 0.608 µM) | 0.25 (≈ 0.608 µM) | – | 2 (≈ 4.87 µM) | 1 (≈ 2.43 µM) | 0.25 (≈ 0.608 µM) | 4 (≈ 9.73 µM) | 32 (≈ 77.9 µM) | 4 (≈ 9.73 µM) | 2 (≈ 4.87 µM) | 1 (≈ 2.43 µM) | > 128 | – | 4 | 9.73 | –
6 | COc1ccc2nccc(CCN3CCC(NCc4ccc(Br)cc4)CC3)c2n1 [Compound 14] | 0.0625 (≈ 0.137 µM) | 0.062 (≈ 0.136 µM) | – | – | 1 (≈ 2.2 µM) | 0.5 (≈ 1.1 µM) | 0.0625 (≈ 0.137 µM) | 1 (≈ 2.2 µM) | 16 (≈ 35.1 µM) | 2 (≈ 4.39 µM) | 0.5 (≈ 1.1 µM) | 1 (≈ 2.2 µM) | 128 (≈ 281 µM) | – | 2 | 4.39 | MIC (M. smegmatis; Mycolicibacterium smegmatis, read-out: MIC M. smegmatis): 0.125 µg/mL (≈ 0.274 µM)
7 | COc1ccc2nccc(CCN3CCC(NCc4ccc(I)cc4)CC3)c2n1 [Compound 15] | 0.0078 (≈ 0.0155 µM) | 0.0078 (≈ 0.0155 µM) | 0.015 (≈ 0.0299 µM) | – | 1 (≈ 1.99 µM) | 0.125 (≈ 0.249 µM) | 0.0312 (≈ 0.0622 µM) | 0.25 (≈ 0.498 µM) | 8 (≈ 15.9 µM) | 1 (≈ 1.99 µM) | 0.015 (≈ 0.0299 µM) | 1 (≈ 1.99 µM) | 32 (≈ 63.7 µM) | – | 2 | 3.98 | IC50 (HUVEC; 72 h): ~20 µM; MIC (E. coli (ATCC 25922); Escherichia coli, ATCC25922; range over E. coli strains; read-out: MIC E. coli): 0.25 to 2 µg/mL
8 | COc1ccc2nccc(CCN3CCC(NCc4ccc(C(N)=O)cc4)CC3)c2n1 [Compound 17] | 4 (≈ 9.53 µM) | 4 (≈ 9.53 µM) | 16 (≈ 38.1 µM) | > 100 | 128 (≈ 305 µM) | > 128 | 4 (≈ 9.53 µM) | 128 (≈ 305 µM) | > 128 | 128 (≈ 305 µM) | 128 (≈ 305 µM) | 128 (≈ 305 µM) | > 128 | 305 | > 128 | – | –
9 | COc1ccc2nccc(CCN3CCC(NCc4ccc(N(C)C)cc4)CC3)c2n1 [Compound 18] | 0.5 (≈ 1.19 µM) | – | 4 (≈ 9.53 µM) | > 100 | 8 (≈ 19.1 µM) | 0.25 (≈ 0.596 µM) | 0.25 (≈ 0.596 µM) | 8 (≈ 19.1 µM) | 128 (≈ 305 µM) | 128 (≈ 305 µM) | 4 (≈ 9.53 µM) | 1 (≈ 2.38 µM) | > 128 | – | 32 | 78.5 | –
